In patent publication EP3782997A1, “FUSED PYRIMIDINE COMPOUNDS AND PHARMACEUTICAL COMPOSITIONS THEREOF FOR THE TREATMENT OF FIBROTIC DISEASES” (Galapagos N.V., priority 2019, dated 2021):

target: hENPP2 (Homo sapiens, UniProt Q13822); assay: Human ENPP2 (hENPP2) biochemical assay using LPC as substrate; details: 150 µM LPC (palmitoyl 16:0), 37°C for 30 min
Method in brief: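 IC50 came from compound series (top 50 µM, 1/3 steps) incubated 30 min at 37°C with 1 or 3 µg/mL final enzyme and palmitoyl LPC added at 150 µM, pH 8.5 Tris buffer with Ca2+. Choline output measured as quinoneimine dye at 555 nm via coupled oxidase/HRP/TOOS detection.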

Compound	IC50 [nM]
Cc1cccc(Nc2ncc3c(n2)CN([C@@H]2CCN(C(=O)c4ccnc(NS(C)(=O)=O)c4)[C@H](C)C2)C3)c1 [compound 203, N-[4-[(2R,4R)-2-methyl-4-[2-(3-methylanilino)-5,7-dihydropyrrolo[3,4-d]pyrimidin-6-yl]piperidine-1-carbonyl]-2-pyridyl]methanesulfonamide]	0.01 to 100
COc1cc(F)cc(Nc2ncc3c(n2)CN([C@@H]2CCN(C(=O)c4ccnc(NS(C)(=O)=O)c4)[C@H](C)C2)C3)c1 [compound 204, N-[4-[(2R,4R)-4-[2-(3-fluoro-5-methoxy-anilino)-5,7-dihydropyrrolo[3,4-d]pyrimidin-6-yl] -2-methyl-piperidine-1-carbonyl]-2-pyridyl]methanesulfonamide]	100 to 500
C[C@@H]1C[C@H](N2Cc3cnc(Nc4ccc(OC(F)(F)F)cc4)nc3C2)CCN1C(=O)c1ccnc(NS(C)(=O)=O)c1 [compound 205, N-[4-[(2R,4R)-2-methyl-4-[2-[4-(trifluoromethoxy)anilino]-5,7-dihydropyrrolo[3,4-d]pyrimidin-6-yl]piperidine-1-carbonyl]-2-pyridyl]methanesulfonamide]	0.01 to 100
Cc1cc(C)cc(Nc2ncc3c(n2)CN([C@@H]2CCN(C(=O)c4cccc(NS(C)(=O)=O)c4)[C@H](C)C2)C3)c1 [compound 206, N-[3-[(2R,4R)-4-[2-(3,5-dimethylanilino)-5,7-dihydropyrrolo[3,4-d]pyrimidin-6-yl]-2-methyl-piperidine-1-carbonyl]phenyl]methanesulfonamide]	> 1000
Cc1cc(Nc2ncc3c(n2)CN([C@@H]2CCN(C(=O)c4ccnc(NS(C)(=O)=O)c4)[C@H](C)C2)C3)ccc1F [compound 207, N-[4-[(2R,4R)-4-[2-(4-fluoro-3-methyl-anilino)-5,7-dihydropyrrolo[3,4-d]pyrimidin-6-yl]-2-methyl-piperidine-1-carbonyl]-2-pyridyl]methanesulfonamide]	0.01 to 100
Cc1cc(C)cc(Nc2ncc3c(n2)CN([C@@H]2CCN(C(=O)c4cc(NS(C)(=O)=O)ncc4F)[C@H](C)C2)C3)c1 [compound 208, N-[4-[(2R,4R)-4-[2-(3,5-dimethylanilino)-5,7-dihydropyrrolo[3,4-d]pyrimidin-6-yl]-2-methyl-piperidine-1-carbonyl]-5-fluoro-2-pyridyl]methanesulfonamide]	0.01 to 100
CC(=O)Nc1cc(C(=O)N2CC[C@@H](N3Cc4cnc(Nc5cc(C)cc(C)c5)nc4C3)C[C@H]2C)ccn1 [compound 209, N-[4-[(2R,4R)-4-[2-(3,5-dimethylanilino)-5,7-dihydropyrrolo[3,4-d]pyrimidin-6-yl]-2-methyl-piperidine-1-carbonyl]-2-pyridyl]acetamide]	500 to 1000
CCS(=O)(=O)Nc1cc(C(=O)N2CC[C@@H](N3Cc4cnc(Nc5cc(C)cc(C)c5)nc4C3)C[C@H]2C)ccn1 [compound 210, N-[4-[(2R,4R)-4-[2-(3,5-dimethylanilino)-5,7-dihydropyrrolo[3,4-d]pyrimidin-6-yl]-2-methyl-piperidine-1-carbonyl]-2-pyridyl]ethanesulfonamide]	0.01 to 100
Cc1cc(C)cc(Nc2ncc3c(n2)CN([C@@H]2CCN(C(=O)c4cncc(NS(C)(=O)=O)c4)[C@H](C)C2)C3)c1 [compound 211, N-[5-[(2R,4R)-4-[2-(3,5-dimethylanilino)-5,7-dihydropyrrolo[3,4-d]pyrimidin-6-yl]-2-methyl-piperidine-1-carbonyl]-3-pyridyl]methanesulfonamide]	> 1000
Cc1cc(C)cc(Nc2ncc3c(n2)CN([C@@H]2CCN(C(=O)c4ccnc(NS(=O)(=O)C(F)(F)F)c4)[C@H](C)C2)C3)c1 [compound 212, N-[4-[(2R,4R)-4-[2-(3,5-dimethylanilino)-5,7-dihydropyrrolo[3,4-d]pyrimidin-6-yl]-2-methyl-piperidine-1-carbonyl]-2-pyridyl]-1,1,1-trifluoro-methanesulfonamide]	100 to 500
C[C@@H]1C[C@H](N2Cc3cnc(Nc4cc(F)cc(Cl)c4)nc3C2)CCN1C(=O)c1ccnc(NS(C)(=O)=O)c1 [compound 213, N-[4-[(2R,4R)-4-[2-(3-chloro-5-fluoro-anilino)-5,7-dihydropyrrolo[3,4-d]pyrimidin-6-yl]-2-methyl-piperidine-1-carbonyl]-2-pyridyl]methanesulfonamide]	0.01 to 100
C[C@@H]1C[C@@H](N2Cc3cnc(Nc4cc(F)cc(Cl)c4)nc3C2)CCN1C(=O)c1ccnc(NS(C)(=O)=O)c1 [compound 214, N-[4-[(2R,4S)-4-[2-(3-chloro-5-fluoro-anilino)-5,7-dihydropyrrolo[3,4-d]pyrimidin-6-yl]-2-methyl-piperidine-1-carbonyl]-2-pyridyl]methanesulfonamide]	100 to 500
Cc1cc(Nc2ncc3c(n2)CN([C@@H]2CCN(C(=O)c4ccnc(NS(C)(=O)=O)c4)[C@H](C)C2)C3)ccc1C(F)(F)F [compound 215, N-[4-[(2R,4R)-2-methyl-4-[2-[3-methyl-4-(trifluoromethyl)anilino]-5,7-dihydropyrrolo[3,4-d]pyrimidin-6-yl]piperidine-1-carbonyl]-2-pyridyl]methanesulfonamide]	0.01 to 100
Cc1cc(Nc2ncc3c(n2)CN([C@H]2CCN(C(=O)c4ccnc(NS(C)(=O)=O)c4)[C@H](C)C2)C3)ccc1C(F)(F)F [compound 216, N-[4-[(2R,4S)-2-methyl-4-[2-[3-methyl-4-(trifluoromethyl)anilino]-5,7-dihydropyrrolo[3,4-d]pyrimidin-6-yl]piperidine-1-carbonyl]-2-pyridyl]methanesulfonamide]	0.01 to 100
COc1cc(Nc2ncc3c(n2)CN([C@@H]2CCN(C(=O)c4ccnc(NS(C)(=O)=O)c4)[C@H](C)C2)C3)ccc1Cl [compound 217, N-[4-[(2R,4R)-4-[2-(4-chloro-3-methoxy-anilino)-5,7-dihydropyrrolo[3,4-d]pyrimidin-6-yl]-2-methyl-piperidine-1-carbonyl]-2-pyridyl]methanesulfonamide]	0.01 to 100
Cc1cc(C)cc(Nc2ncc3c(n2)CN([C@@H]2CCN(C(=O)c4cc(NS(C)(=O)=O)ncc4C)[C@H](C)C2)C3)c1 [compound 218, N-[4-[(2R,4R)-4-[2-(3,5-dimethylanilino)-5,7-dihydropyrrolo[3,4-d]pyrimidin-6-yl]-2-methyl-piperidine-1-carbonyl]-5-methyl-2-pyridyl]methanesulfonamide]	0.01 to 100
C[C@@H]1C[C@@H](N2Cc3cnc(Nc4cccc(OC5CC5)c4)nc3C2)CCN1C(=O)c1ccnc(NS(C)(=O)=O)c1 [compound 219, N-[4-[(2R,4S)-4-[2-[3-(cyclopropoxy)anilino]-5,7-dihydropyrrolo[3,4-d]pyrimidin-6-yl]-2-methyl-piperidine-1-carbonyl]-2-pyridyl]methanesulfonamide]	100 to 500
